Test results published in US12084472B2 (Ardelyx, Inc., priority 2015, dated 2024).

These compounds were tested against T1, human TGR5 (Homo sapiens, UniProt Q8TDU6) (assay: Cell-based TGR5 assay (cAMP generation, HTRF)). Conditions: HEK293 cells stably transfected with human TGR5; cAMP by HTRF; 30 minutes at 37° C.; read-out: pEC50 Human TGR5 (converted).
T1 construct: expressed in transfected cells; host or cells: HEK293
T1 sequence (Q8TDU6 1-330): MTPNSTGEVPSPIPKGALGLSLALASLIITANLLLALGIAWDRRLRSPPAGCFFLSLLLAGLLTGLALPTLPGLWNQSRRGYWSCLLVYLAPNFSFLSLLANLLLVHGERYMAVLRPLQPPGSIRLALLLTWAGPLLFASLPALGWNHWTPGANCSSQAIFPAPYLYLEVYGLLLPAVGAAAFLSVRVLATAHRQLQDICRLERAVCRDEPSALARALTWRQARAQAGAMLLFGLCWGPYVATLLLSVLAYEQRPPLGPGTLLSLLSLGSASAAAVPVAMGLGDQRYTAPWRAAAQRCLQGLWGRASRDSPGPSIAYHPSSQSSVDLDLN
In short: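 First, compounds in 3-fold serial dilution were placed in HBSS with 10 mM HEPES pH 7.4 and 0.5 mM IBMX. Next, human TGR5-expressing HEK293 cells were added and incubated 30 min at 37° C. Finally, cAMP was detected by HTRF and pEC50 derived by logistic fitting.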

`O=C(NCCCCc1cc(Cl)c(COC2(c3cnccc3-c3ccccc3OC3COC3)CC2)cc1Cl)NC[C@H](O)[C@@H](O)[C@H](O)[C@H](O)CO` [Compound I-193, 1-(4-{2,5-dichloro-4-[(1-{4-[2-(oxetan-3-yloxy)phenyl]pyridin-3-yl}cyclopropoxy)methyl]phenyl}butyl)-3-[(2S,3R,4R,5R)-2,3,4,5,6-pentahydroxyhexyl]urea] and `CN(CCCCNC(=O)NC[C@H](O)[C@@H](O)[C@H](O)[C@H](O)CO)S(=O)(=O)c1cc(COC2(c3cnccc3-c3ccccc3OC3CC3)CC2)c(Cl)cc1Cl` [Compound I-467, 1-{4-[N-methyl2,4-dichloro-5-({1-[4-(2-cyclopropoxyphenyl)pyridin-3-yl]cyclopropoxy}methyl)benzenesulfonamido]butyl}-3-[(2S,3R,4R,5R)-2,3,4,5,6-pentahydroxyhexyl]urea] cannot be ordered by EC50: less than 0.1 µM for the first, less than 0.1 µM for the second.

`CC(C)N(CCCCc1cc(Cl)c(COC2(c3cnccc3-c3ccccc3OC3CC3)CC2)cc1Cl)C(=O)[C@@H](O)[C@@H](O)[C@H](O)[C@@H](O)CO` (stereo in doubt) [Compound I-210, (2S,3S,4R,5S)-N-{4-[2,5-dichloro-4-({1-[4-(2-cyclopropoxyphenyl)pyridin-3-yl]cyclopropoxy}methyl)phenyl]butyl}-2,3,4,5,6-pentahydroxy-N-(propan-2-yl)hexanamide] and `O=C([C@@H](O)[C@@H](O)[C@H](O)[C@@H](O)CO)N(CCO)CCCCc1cc(Cl)c(COC2(c3cnccc3-c3ccccc3OC3CC3)CC2)cc1Cl` [Compound I-213, (2S,3S,4R,5S)-N-{4-[2,5-dichloro-4-({1-[4-(2-cyclopropoxyphenyl)pyridin-3-yl]cyclopropoxy}methyl)phenyl]butyl}-2,3,4,5,6-pentahydroxy-N-(2-hydroxyethyl)hexanamide] cannot be ordered by EC50: less than 0.1 µM for the first, less than 0.1 µM for the second.

`Cc1ccc(C(C)CCCC(=O)N(CCS(C)(=O)=O)C[C@H](O)[C@@H](O)[C@H](O)[C@H](O)CO)cc1CNC1(c2cnccc2-c2ccccc2OC2CC2)CC1` (stereo partly drawn) [Compound I-369, 5-{3-[({1-[4-(2-cyclopropoxyphenyl)pyridin-3-yl]cyclopropyl}amino)methyl]-4-methylphenyl}-N-(2-methanesulfonylethyl)-N-[(2S,3R,4R,5R)-2,3,4,5,6-pentahydroxyhexyl]hexanamide] and `CN(C[C@H](O)[C@@H](O)[C@H](O)[C@H](O)CO)C(=O)CCSc1ccc(Cl)c(CNC2(c3cnccc3-c3ccccc3OC3CC3)CC2)c1` [Compound I-676, 3-({4-chloro-3-[({1-[4-(2-cyclopropoxyphenyl)pyridin-3-yl]cyclopropyl}amino)methyl]phenyl}sulfanyl)-N-methyl-N-[(2S,3R,4R,5R)-2,3,4,5,6-pentahydroxyhexyl]propanamide] cannot be ordered by EC50: less than 0.1 µM for the first, less than 0.1 µM for the second.

First: Cc1ccc(SCCCC(=O)NC[C@H](O)[C@@H](O)[C@H](O)[C@H](O)CO)nc1CNC1(c2cnccc2-c2ccccc2OC2CC2)CC1 [Compound I-653, 4-({6-[({1-[4-(2-cyclopropoxyphenyl)pyridin-3-yl]cyclopropyl}amino)methyl]-5-methylpyridin-2-yl}sulfanyl)-N-[(2S,3R,4R,5R)-2,3,4,5,6-pentahydroxyhexyl]butanamide]
Second: Cc1ccc(CCCCNC(=O)NC[C@H](O)[C@@H](O)[C@H](O)[C@H](O)CO)nc1CNC1(c2cnccc2-c2ccccc2OC2CC2)CC1 [Compound I-705]
The EC50 of the first is higher: 1.26 to 10 µM for the first, 0.126 to 1 µM for the second.

First: C[C@@H](CCCCN)c1ccc(Cl)c(CNC2(c3cnccc3-c3ccccc3OC3CC3)CC2)c1 (single isomer, unassigned) [Compound I-243]
Second: CN(CCCCSc1ccc(Cl)c(CNC2(c3cnccc3-c3ccccc3OC3CC3)CC2)c1)C(=O)[C@@H](O)[C@@H](O)[C@H](O)[C@@H](O)CO [Compound I-506, (2S,3S,4R,5S)-N-[4-({4-chloro-3-[({1-[4-(2-cyclopropoxyphenyl)pyridin-3-yl]cyclopropyl}amino)methyl]phenyl}sulfanyl)butyl]-2,3,4,5,6-pentahydroxy-N-methylhexanamide]
The EC50 of the first is higher: 0.126 to 1 µM for the first, less than 0.1 µM for the second.

`O=C([C@@H](O)[C@@H](O)[C@H](O)[C@@H](O)CO)N(CCCCSc1ccc(Cl)c(COC2(c3cnccc3-c3ccccc3OC3CC3)CC2)c1)C1CCS(=O)(=O)CC1` [Compound I-569, (2S,3S,4R,5S)-N-(4-{[4-chloro-3-({1-[4-(2-cyclopropoxyphenyl)pyridin-3-yl]cyclopropoxy}methyl)phenyl]sulfanyl}butyl)-N-(1,1-dioxo-1λ^6-thian-4-yl)-2,3,4,5,6-pentahydroxyhexanamide] and `O=C1CCCN1CCCN(CCCSc1ccc(Cl)c(COC2(c3cnccc3-c3ccccc3OC3CC3)CC2)c1)C(=O)[C@@H](O)[C@@H](O)[C@H](O)[C@@H](O)CO` [Compound I-520, (2S,3S,4R,5S)-N-(3-{[4-chloro-3-({1-[4-(2-cyclopropoxyphenyl)pyridin-3-yl]cyclopropoxy}methyl)phenyl]sulfanyl}propyl)-2,3,4,5,6-pentahydroxy-N-[3-(2-oxopyrrolidin-1-yl)propyl]hexanamide] fall in the same range of EC50: 0.126 to 1 µM for the first, 0.126 to 1 µM for the second.

Compared with `CN(CCOCCN)S(=O)(=O)c1ccc(Cl)c(COC2(c3cnccc3-c3ccccc3OC3CC3)CC2)c1` [Compound I-400, N-[2-(2-aminoethoxy)ethyl]-4-chloro-3-({1-[4-(2-cyclopropoxyphenyl)pyridin-3-yl]cyclopropoxy}methyl)-N-methylbenzene-1-sulfonamide], `CN(CCCCNC(=O)NC[C@H](O)[C@@H](O)[C@H](O)[C@H](O)CO)S(=O)(=O)c1ccc(C(F)(F)F)c(COC2(c3cnccc3-c3ccccc3OC3CC3)CC2)c1` [Compound I-469, 1-{4-[N-methyl3-({1-[4-(2-cyclopropoxyphenyl)pyridin-3-yl]cyclopropoxy}methyl)-4-(trifluoromethyl)benzenesulfonamido]butyl}-3-[(2S,3R,4R,5R)-2,3,4,5,6-pentahydroxyhexyl]urea] is lower in EC50: 0.126 to 1 µM for the first, less than 0.1 µM for the second.

`O=C([C@H](O)[C@@H](O)[C@H](O)[C@H](O)CO)N(CCCCO)CCCCc1cc(Cl)c(COC2(c3cnccc3-c3ccccc3OC3CC3)CC2)cc1Cl` [Compound I-81, (2R,3S,4R,5R)-N-(4-(2,5-dichloro-4-((1-(4-(2-cyclopropoxyphenyl)pyridin-3-yl)cyclopropoxy)methyl)phenyl)butyl)-2,3,4,5,6-pentahydroxy-N-(4-hydroxybutyl)hexanamide] and `CC(CCCc1cc(Cl)c(COC2(c3cnccc3-c3ccccc3OC3CC3)CC2)cc1Cl)C(=O)N(C)C[C@H](O)[C@@H](O)[C@H](O)[C@H](O)CO` (stereo partly drawn) [Compound I-140, 5-[2,5-dichloro-4-({1-[4-(2-cyclopropoxyphenyl)pyridin-3-yl]cyclopropoxy}methyl)phenyl]-N,2-dimethyl-N-[(2S,3R,4R,5R)-2,3,4,5,6-pentahydroxyhexyl]pentanamide] cannot be ordered by EC50: less than 0.1 µM for the first, less than 0.1 µM for the second.

`Cc1cc(COC2(c3cnccc3-c3ccccc3OC3CC3)CC2)c(Cl)cc1CCCCNC(=O)NCC(=O)NCC(=O)NCC(=O)O` [Compound I-111, 2-(2-{2-[({4-[5-chloro-4-({1-[4-(2-cyclopropoxyphenyl)pyridin-3-yl]cyclopropoxy}methyl)-2-methylphenyl]butyl}carbamoyl)amino]acetamido}acetamido)acetic acid] gave an EC50 of less than 0.1 µM.
